The target in data set [1] is T1, ABCG25 (Arabidopsis thaliana, UniProt Q84TH5).
T1 sequence (Q84TH5 1-662): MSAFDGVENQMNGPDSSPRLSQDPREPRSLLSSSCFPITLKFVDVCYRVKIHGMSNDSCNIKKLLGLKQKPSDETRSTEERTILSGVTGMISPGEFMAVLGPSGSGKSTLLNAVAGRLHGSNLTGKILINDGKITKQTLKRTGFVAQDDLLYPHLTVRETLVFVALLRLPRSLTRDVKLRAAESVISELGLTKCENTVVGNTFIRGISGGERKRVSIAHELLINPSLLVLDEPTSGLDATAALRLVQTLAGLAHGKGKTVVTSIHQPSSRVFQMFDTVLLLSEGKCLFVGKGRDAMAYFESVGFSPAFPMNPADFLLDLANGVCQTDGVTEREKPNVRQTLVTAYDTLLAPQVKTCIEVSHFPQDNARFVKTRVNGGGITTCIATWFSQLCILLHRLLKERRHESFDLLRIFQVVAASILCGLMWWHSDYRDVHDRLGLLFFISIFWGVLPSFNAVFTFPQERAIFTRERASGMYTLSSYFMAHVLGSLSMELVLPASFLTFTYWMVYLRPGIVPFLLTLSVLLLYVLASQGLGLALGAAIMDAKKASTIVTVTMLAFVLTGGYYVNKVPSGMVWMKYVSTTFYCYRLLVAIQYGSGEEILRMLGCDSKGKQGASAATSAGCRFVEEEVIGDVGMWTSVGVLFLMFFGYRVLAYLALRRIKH
The experiment in a line: stimulation of ATPase activity (colorimetric Pi release), allosteric sigmoidal fit. Type of data set: biochemical. Set-up: full-length, N-terminal Flag tag, baculovirus / Sf9 cells, homodimer, purified in DDM or digitonin (with CHS extraction).

Data set [2] deals with T1, ABCG25. The data set can be described thus: [3H]-ABA loading and efflux assays in Sf9 cells. Type of data set: cell-based. Further details: full-length, N-terminal Flag tag, baculovirus / Sf9 cells. The conditions noted are these: 6.6 nM, pH 5.5; labelled compound.
Data set [3] has as its target T1, ABCG25. The data set can be described thus: ATPase activity in liposomes reconstituted with or without cholesterol. Format: biochemical. Further details: full-length, N-terminal Flag tag, baculovirus / Sf9 cells, homodimer, purified in DDM or digitonin (with CHS extraction). The following applies: lipid:cholesterol 9:1 (w/w), proteoliposomes; direct action not proven (sterol identity in the cavity not settled).

Substrate in data set [4]: Nc1ncnc2c1ncn2[C@@H]1O[C@H](COP(=O)(O)OP(=O)(O)OP(=O)(O)O)[C@@H](O)[C@H]1O
The data set can be described thus: ATPase activity (colorimetric Pi release), Michaelis-Menten fit. Type of data set: biochemical, Arabidopsis thaliana. The following applies: 10 mM MgCl2, pH 7.4, 37 °C, detergent micelle (0.01% DDM), no ABA.

Data set [5] concerns the molecule itself. The experiment in a line: cryo-EM structure; single particle analysis of purified ABCG25WT in 25 mM HEPES-NaOH pH 7.4, 150 mM NaCl, 0.03% digitonin; apo or with 2 mM ABA; C2 symmetry applied.
Data set [6] concerns the molecule itself. The data set can be described thus: cryo-EM structure; single particle analysis of purified E232Q ABCG25 in digitonin, incubated with 5 mM ATP and 10 mM MgCl2 on ice for 60 min.

Turning to `CC1=CC(=O)CC(C)(C)[C@@]1(O)/C=C/C(C)=C/C(=O)O` [ABA, (S)-(+)-Abscisic acid], on ABCG25 [1], the EC50 amounted to 680 nM. Regarding `CC1=CC(=O)CC(C)(C)[C@@]1(O)/C=C/C(C)=C\C(=O)O` [[3H]-ABA], the “residual [3H]-ABA” value on ABCG25 [2] is “residual [^3H]-ABA substantially decreased in cells expressing ABCG25”. Take `CC(C)CCC[C@@H](C)[C@H]1CC[C@H]2[C@@H]3CC=C4C[C@@H](O)CC[C@]4(C)[C@H]3CC[C@]12C` [cholesterol]: on ABCG25 [3], the ATPase activity entry was “cholesterol was added during liposomes reconstitution, the ATPase activity of ABCG25 was significantly reduced”.

B1: wild-type ABCG25 from Arabidopsis thaliana (natural protein, UniProt Q84TH5 1-662, looked up)
chain: MSAFDGVENQMNGPDSSPRLSQDPREPRSLLSSSCFPITLKFVDVCYRVKIHGMSNDSCNIKKLLGLKQKPSDETRSTEERTILSGVTGMISPGEFMAVLGPSGSGKSTLLNAVAGRLHGSNLTGKILINDGKITKQTLKRTGFVAQDDLLYPHLTVRETLVFVALLRLPRSLTRDVKLRAAESVISELGLTKCENTVVGNTFIRGISGGERKRVSIAHELLINPSLLVLDEPTSGLDATAALRLVQTLAGLAHGKGKTVVTSIHQPSSRVFQMFDTVLLLSEGKCLFVGKGRDAMAYFESVGFSPAFPMNPADFLLDLANGVCQTDGVTEREKPNVRQTLVTAYDTLLAPQVKTCIEVSHFPQDNARFVKTRVNGGGITTCIATWFSQLCILLHRLLKERRHESFDLLRIFQVVAASILCGLMWWHSDYRDVHDRLGLLFFISIFWGVLPSFNAVFTFPQERAIFTRERASGMYTLSSYFMAHVLGSLSMELVLPASFLTFTYWMVYLRPGIVPFLLTLSVLLLYVLASQGLGLALGAAIMDAKKASTIVTVTMLAFVLTGGYYVNKVPSGMVWMKYVSTTFYCYRLLVAIQYGSGEEILRMLGCDSKGKQGASAATSAGCRFVEEEVIGDVGMWTSVGVLFLMFFGYRVLAYLALRRIKH
notes: ABCG25, Arabidopsis thaliana, UniProt Q84TH5, full length; Homodimer of a half-transporter (one NBD and one TMD per chain); No cleavage of the Flag tag is described; the protein was eluted with Flag peptide; also called ABCG25WT; WT
Regarding B1, the Km in data set [4] was 790 µM. Besides, the “stoichiometry N” value in data set [5] was found to be 2.

B2: ABCG25 E232Q catalytic mutant (natural protein, Arabidopsis thaliana, UniProt Q84TH5 1-662, looked up)
chain: MSAFDGVENQMNGPDSSPRLSQDPREPRSLLSSSCFPITLKFVDVCYRVKIHGMSNDSCNIKKLLGLKQKPSDETRSTEERTILSGVTGMISPGEFMAVLGPSGSGKSTLLNAVAGRLHGSNLTGKILINDGKITKQTLKRTGFVAQDDLLYPHLTVRETLVFVALLRLPRSLTRDVKLRAAESVISELGLTKCENTVVGNTFIRGISGGERKRVSIAHELLINPSLLVLDQPTSGLDATAALRLVQTLAGLAHGKGKTVVTSIHQPSSRVFQMFDTVLLLSEGKCLFVGKGRDAMAYFESVGFSPAFPMNPADFLLDLANGVCQTDGVTEREKPNVRQTLVTAYDTLLAPQVKTCIEVSHFPQDNARFVKTRVNGGGITTCIATWFSQLCILLHRLLKERRHESFDLLRIFQVVAASILCGLMWWHSDYRDVHDRLGLLFFISIFWGVLPSFNAVFTFPQERAIFTRERASGMYTLSSYFMAHVLGSLSMELVLPASFLTFTYWMVYLRPGIVPFLLTLSVLLLYVLASQGLGLALGAAIMDAKKASTIVTVTMLAFVLTGGYYVNKVPSGMVWMKYVSTTFYCYRLLVAIQYGSGEEILRMLGCDSKGKQGASAATSAGCRFVEEEVIGDVGMWTSVGVLFLMFFGYRVLAYLALRRIKH
notes: ABCG25, Arabidopsis thaliana, UniProt Q84TH5, full length, with E232Q in the Walker B motif of the NBD; Made and purified in the same way as the wild type; incubated with ATP and Mg2+ before grid preparation; also called ABCG25EQ; E232Q ABCG25
Consider B2, for which the “stoichiometry N” value in data set [6] was found to be 2.

Broadly, the EC50 is the midpoint of the concentration-response curve. A lower EC50 goes with an effect from little substance. The term Km denotes the substrate concentration at which the rate is half of its maximum. The stoichiometry N is a count of units in the complex or per binding partner.

Values taken from paper PMC10581904, “Structural basis for abscisic acid efflux mediated by ABCG25 in Arabidopsis thaliana” (Nature Plants, 2023).
